Test results from patent US20070224287A1, “Methods of Modulating Inflammatory Reactions by Modulating Xanthine Oxidoreductase Activity” (priority 2003, published 2007).
Values belong to the molecule of their own block, whether it stands above or below them.

What was measured:
[1] = target: T1, O-form XOR (Rattus norvegicus, UniProt P22985); assay: DTT reduction of O-form XOR in soluble lung protein extracts; format: biochemical; details: 5 nM DTT at 37° C. for one hour, re-chromatographed on sephadex G25 (FIG. 1e)
T1 construct: Total XOR activity in lung and liver tissue was determined using whole tissue protein extracts; from tissue; host or cells: lung (and liver) of Sprague-Dawley rats
Description: FIGS. 1A-E. Lung XOR induction following cytokine insufflation. Total lung and liver XOR activity was quantitated in the presence of NAD^+ in soluble desalted protein extracts from rats that were insufflated 24h before with saline, IL-1, IFN-γ or IL-1 and IFN-γ. […] IL-1 and IFN-γ insufflated rats had increased (**, p<0.02) lung (A), but not (p>0.05) liver (B), XOR activity compared to rats insufflated with saline, IL-1 (*, p<0.05), or IFN-γp>0.05). (C) Western immunoblot analysis of lung XOR from cytokine insufflated rats. Antibody to rat β-actin was used to control for gel loading. Gels were scanned with a Perkin-Elmer phosphoimager for semi-quantitation. Data are shown for two rats in each group. […] (D) The percentage of O-form XOR was quantitated in soluble protein extracts of cytokine insufflated rat lungs. […] Rats insufflated with IL-1 and IFN-γ had increased (*, p<0.05) lung O-form XOR activity compared to rats insufflated with saline, IL-1 or IFN-γ. […]
We quantitated the levels of O-form XOR in untreated or cytokine insufflated rat lungs. […] Soluble lung protein extracts from insufflated rats were exposed to 5 nM DTT at 37° C. for one hour and were re-chromatographed on sephadex G25 after which D-form and O-form content was re-measured. […]

[2] = system: leukocyte-chemokine expression and leukocyte accumulation; details: endotoxemic model of liver injury; cited from earlier work
[3] = system: caspase-3; assay: Activated caspase-3 detection in lung sections; format: in vivo, rat; details: prior feeding with diet, IL-1 and IFN-γ insufflation 24 hours before (FIG. 4h)
Description: Activated caspase-3 detection. Detection of the cleaved, mature, activated caspase-3 was performed on paraffin-embedded sections using the Cell Signaling Technology, Inc (Beverly, Mass.) protocol. First, paraffin-embedded slides were deparaffinized and rehydrated. Incubation with 1% H2O2 for 10 min blocked endogenous peroxidase activity. For antigen unmasking, the tissue sections were microwaved in 10 mM sodium citrate buffer (pH 6.0) for 10 min. Next, the sections were blocked in 5% goat serum for 1 hr at room temperature. Slides were then incubated at 4° C. overnight with caspase-3 antibody specific for the cleaved, mature, form of caspase-3 diluted 1:200 in phosphate buffered saline (Asp-175; Cell Signaling Technology, Inc). This was followed by a 30 min incubation with a 1:200 dilution of goat anti-rabbit antibody (PK-6101; Vector Laboratories, Burlingame, Calif.). A subsequent 30 min incubation with VectaStain Elite ABC reagent (PK-6101; Vector Laboratories) ensued. This reaction was followed by the addition of the DAB substrate kit for peroxidase (SK-4100; Vector Labs). The slides were finally counterstained with hematoxylin (H-3401; Vector Labs), dehydrated and mounted. Caspase-3 positive cells were quantitated by counting the percent positive alveolar cells per field under 100× magnification.

[4] = system: sarcoidosis; details: cited from earlier work
[5] = system: IL-1 and IFN-γ insufflated rats; assay: Differential and total inflammatory cell counts in BALF after cytokine insufflation; format: in vivo, rat; details: for accumulation of inflammatory cells (BALF cell numbers): diet before IL-1 and IFN-γ insufflation, 24 hours later, allopurinol 50 mg/Kg for seven days (FIG. 4c); for macrophages in BALF (differential analysis) / neutrophils in BALF (differential analysis): 24 hours following insufflation
Excerpt: (§1) Intratracheal cytokine insufflation.

[6] = system: pancreatitis and vascular injury; details: L-arginine induced pancreatic inflammation in rats; cited from earlier work
[7] = system: alveolar cells; assay: TUNEL staining and morphometric analysis; format: in vivo, rat; details: prior feeding with diet, IL-1 and IFN-γ insufflation 24 h before (FIG. 4f,g)
Description: TUNEL staining and morphometric analysis. The TUNEL assay was used to detect apoptotic cells in fixed lung sections. After fixation with 4% buffered formalin, lung tissue sections were embedded in paraffin, sectioned at […], and mounted on glass slides. Slides were de-paraffinized, rehydrated for 10 min in PBS, and treated with 0.002% proteinase K (Sigma) in distilled water for 5 to 15 min at room temperature. Terminal deoxynucleotidyl transferase (TdT) was used for labeling of DNA nicks using the TACS kit (Trevigen, Inc., Gaithersburg, Md.). Counterstaining with DAPI was done to stain nuclear DNA and with Rhodamine coupled wheat germ agglutinin (WGA, Molecular Probes, Eugene, Oreg.) to stain the structural architecture. TUNEL positive cell staining appeared as green fluorescence in the nuclei of clearly defined alveolar cells. Background nuclear staining appeared as blue while the tissue architecture was red.

[8] = target: T2, XOR (Homo sapiens, UniProt P47989); details: COPD; cited from earlier work
T2 construct: host or cells: bronchoalveolar lavage fluid of COPD patients

[9] = system: vascular injury; details: mice, hemorrhagic shock or LPS injection, prior inhibition of XOR; cited from earlier work
[10] = system: NADPH oxidase; details: even at relatively high doses; cited from earlier work
[11] = system: IL-1 and IFN-γ insufflated rats; assay: Lung histology (H&E) after cytokine insufflation; details: diet before IL-1 and IFN-γ insufflation, 24 hours later (FIG. 4d)
[12] = system: PMN accumulation in the eye; details: uveitis, even after the onset of disease; cited from earlier work
[13] = target: T3, MNP XOR (Rattus norvegicus, UniProt P22985); assay: Cell transfer experiment: BALF cells treated in vitro and insufflated into control rats; format: in vivo; details: BALF cells exposed 15 min to 150 μM allopurinol in vitro, 2×10^6 cells insufflated into control rats, BALF 24 hours later, p<0.05 vs control cells (FIG. 5c)
T3 construct: endogenous in cells; host or cells: BALF cells / adherent mononuclear phagocytes from IL-1 and IFN-gamma insufflated Sprague-Dawley rats
Description: A lung inflammatory response was induced in rats with IL-1 and IFN-γ insufflation. After 8 hours, cells from BALF were recovered from each rat in PBS, pooled, and quantitated. Cells were then divided into two equivalent fractions and exposed to 1 mM KOH or 1 mM KOH with 150 μM allopurinol in vitro. The neutral pH of the PBS and cell mixture was unchanged by adding 1 mM KOH. After 15 min, the cells were washed and resuspended in PBS. Subsequently, 2×10^6 of control or allopurinol treated cells were insufflated into control rats. 24 hours after cell insufflation, BALF cells were recovered from these rats, Wright's stained and quantitated. […] Data are the mean and standard error of 6 rats in each group.
To determine whether XOR induction in MNP could contribute to lung inflammation, we performed a cell transfer experiment. We induced a pulmonary inflammatory response in rats with IL-1 and IFN-γ insufflation, obtained these cells by bronchoalveolar lavage 8 hours later, and then treated these cells with either allopurinol or the vehicle for allopurinol in vitro. After a 15 min exposure to allopurinol or the vehicle, the cells were washed, resuspended in PBS, and then insufflated into control rats. Subsequently, cells were harvested from the BALF of these control rats, stained, and quantitated.

[14] = system: superoxide generation; details: streptozotocin induced diabetes in mice; cited from earlier work
[15] = system: pancreatic fibrosis; details: rats treated with diethyldithiocarbamate; cited from earlier work
[16] = system: endothelial injury in the lungs (and gut); details: heavy smokers and rats subjected to heavy smoking conditions; cited from earlier work
[17] = system: patients with chronic heart failure (CHF), cardiomyopathy, or undergoing heart surgery; details: cited from earlier work
[18] = system: acute gastric mucosal lesions; details: rats; cited from earlier work
[19] = system: Id-2; assay: Western immunoblot of Id-2 from BALF cells; format: in vivo, rat; details: 24 hours following cytokine insufflation, allopurinol vs control fed rats
Description: Western immunoblot analysis of the differential inhibitor, Id-2, from BALF cells obtained 24 hours following cytokine insufflation in allopurinol (A) or control (C) fed rats.

[20] = system: vascular endothelial function; details: Type 1 and Type 2 diabetes in humans; cited from earlier work
[21] = system: colonic leukocyte-chemokine expression and leukocyte accumulation; details: mice; cited from earlier work
[22] = target: T4, XOR (Rattus norvegicus, UniProt P22985); assay: Xanthine oxidoreductase assay, lung tissue extracts of cytokine insufflated rats; format: in vivo; details: for induction of total lung XOR activity: 24 hours following intratracheal cytokine insufflation (50 ng per rat) compared to saline alone (FIG. 1a); for lung O-form XOR content: lungs 24 h after insufflation, untreated 23%, saline 42% (FIG. 1d)
T4 construct: Total XOR activity in lung and liver tissue was determined using whole tissue protein extracts; from tissue; host or cells: lung (and liver) of Sprague-Dawley rats
Description: as §1
(§2) Xanthine oxidoreductase assay. Total XOR activity in lung and liver tissue was determined using whole tissue protein extracts. Briefly, tissues that had been perfused blood free were placed into liquid N2 and stored at −80° C. prior to generating enzyme extracts. Enzyme extracts were prepared by placing frozen specimens in extract buffer (100 mM K-Phosphate, pH 7.8, 1 mM EDTA, 1 mM PMSF). Tissues were thawed in extract buffer on ice and minced. Minced tissues were broken in a rotating dounce using exactly three strokes of the pestle. Tissue homogenates were then centrifuged at 15,000×g at 4° C. for 30 min. Clarified extracts were desalted on 2 cm×20 cm Sephadex G25 columns to remove low molecular weight substances that potentially interfere with enzyme activity (48), and 3 ml of the flow through front were collected. Allopurinol inhibitable XOR activity was determined spectroscopically by measuring uric acid formation from xanthine at 290 nm. The stability of uric acid added to the flow through fraction was determined in the presence and absence of the uricase inhibitor, oxonic acid (OA). […] Evaluation of D-form XOR and O-form XOR was determined by measuring enzymatic activity in the presence and absence of NAD+(49).

[23] = system: XOR; details: cited from earlier work
[24] = target: T4, XOR; assay: XOR activity in BALF cells / adherent MNP of cytokine insufflated rats; details: in vivo
Description: as §1
as §2, with “Clarified extracts were desalted on 2 cm×20 cm Sephadex G25 columns to remove low molecular weight substances that potentially interfere with enzyme activity (48), and 3 ml of the flow through front were collected.” left out
Neutrophils and MNP were recovered from the BALF 24 hours following IL-1 and IFN-γ insufflation and purified on Percoll gradients. […] Although XOR was induced over a 24 hour period in the infiltrating MNP recovered from the lungs of IL-1 and IFN-γ insufflated rats, neither XOR activity or antigen was detected in circulating rat monocytes (not shown). […]

T4 sequence (P22985 whole entry): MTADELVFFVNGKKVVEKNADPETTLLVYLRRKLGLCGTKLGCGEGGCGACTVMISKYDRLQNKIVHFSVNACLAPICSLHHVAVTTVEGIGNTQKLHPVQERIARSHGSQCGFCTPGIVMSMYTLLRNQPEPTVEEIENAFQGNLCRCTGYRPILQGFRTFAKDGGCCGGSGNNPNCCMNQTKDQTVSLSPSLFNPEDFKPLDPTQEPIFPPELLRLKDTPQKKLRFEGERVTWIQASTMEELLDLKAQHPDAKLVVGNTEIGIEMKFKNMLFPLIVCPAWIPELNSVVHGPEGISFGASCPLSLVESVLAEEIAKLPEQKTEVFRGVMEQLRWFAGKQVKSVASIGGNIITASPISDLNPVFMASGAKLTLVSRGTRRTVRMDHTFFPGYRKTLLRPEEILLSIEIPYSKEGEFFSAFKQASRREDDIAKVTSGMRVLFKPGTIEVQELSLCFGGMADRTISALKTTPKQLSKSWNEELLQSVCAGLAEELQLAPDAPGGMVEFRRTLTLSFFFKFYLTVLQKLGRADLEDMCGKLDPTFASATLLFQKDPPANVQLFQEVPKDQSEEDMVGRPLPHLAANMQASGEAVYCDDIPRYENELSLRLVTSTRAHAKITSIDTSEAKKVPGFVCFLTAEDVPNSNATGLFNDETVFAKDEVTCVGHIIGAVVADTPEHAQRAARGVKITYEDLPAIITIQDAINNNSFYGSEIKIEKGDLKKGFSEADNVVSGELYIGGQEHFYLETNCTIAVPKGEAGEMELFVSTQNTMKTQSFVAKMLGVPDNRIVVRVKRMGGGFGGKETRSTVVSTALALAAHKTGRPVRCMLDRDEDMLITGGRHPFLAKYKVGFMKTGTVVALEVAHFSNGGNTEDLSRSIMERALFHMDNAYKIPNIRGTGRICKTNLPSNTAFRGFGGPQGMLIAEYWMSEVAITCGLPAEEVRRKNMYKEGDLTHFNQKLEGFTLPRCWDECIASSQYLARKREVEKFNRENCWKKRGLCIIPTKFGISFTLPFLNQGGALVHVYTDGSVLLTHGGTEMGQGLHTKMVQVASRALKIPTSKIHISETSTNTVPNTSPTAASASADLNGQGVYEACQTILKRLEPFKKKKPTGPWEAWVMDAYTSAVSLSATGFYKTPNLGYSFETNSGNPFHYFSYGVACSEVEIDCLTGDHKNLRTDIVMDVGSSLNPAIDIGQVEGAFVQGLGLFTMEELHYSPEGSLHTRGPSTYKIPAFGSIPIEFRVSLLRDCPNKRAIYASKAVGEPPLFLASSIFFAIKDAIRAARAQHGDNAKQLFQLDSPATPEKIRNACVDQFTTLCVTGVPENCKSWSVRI
T2 sequence (P47989 whole entry): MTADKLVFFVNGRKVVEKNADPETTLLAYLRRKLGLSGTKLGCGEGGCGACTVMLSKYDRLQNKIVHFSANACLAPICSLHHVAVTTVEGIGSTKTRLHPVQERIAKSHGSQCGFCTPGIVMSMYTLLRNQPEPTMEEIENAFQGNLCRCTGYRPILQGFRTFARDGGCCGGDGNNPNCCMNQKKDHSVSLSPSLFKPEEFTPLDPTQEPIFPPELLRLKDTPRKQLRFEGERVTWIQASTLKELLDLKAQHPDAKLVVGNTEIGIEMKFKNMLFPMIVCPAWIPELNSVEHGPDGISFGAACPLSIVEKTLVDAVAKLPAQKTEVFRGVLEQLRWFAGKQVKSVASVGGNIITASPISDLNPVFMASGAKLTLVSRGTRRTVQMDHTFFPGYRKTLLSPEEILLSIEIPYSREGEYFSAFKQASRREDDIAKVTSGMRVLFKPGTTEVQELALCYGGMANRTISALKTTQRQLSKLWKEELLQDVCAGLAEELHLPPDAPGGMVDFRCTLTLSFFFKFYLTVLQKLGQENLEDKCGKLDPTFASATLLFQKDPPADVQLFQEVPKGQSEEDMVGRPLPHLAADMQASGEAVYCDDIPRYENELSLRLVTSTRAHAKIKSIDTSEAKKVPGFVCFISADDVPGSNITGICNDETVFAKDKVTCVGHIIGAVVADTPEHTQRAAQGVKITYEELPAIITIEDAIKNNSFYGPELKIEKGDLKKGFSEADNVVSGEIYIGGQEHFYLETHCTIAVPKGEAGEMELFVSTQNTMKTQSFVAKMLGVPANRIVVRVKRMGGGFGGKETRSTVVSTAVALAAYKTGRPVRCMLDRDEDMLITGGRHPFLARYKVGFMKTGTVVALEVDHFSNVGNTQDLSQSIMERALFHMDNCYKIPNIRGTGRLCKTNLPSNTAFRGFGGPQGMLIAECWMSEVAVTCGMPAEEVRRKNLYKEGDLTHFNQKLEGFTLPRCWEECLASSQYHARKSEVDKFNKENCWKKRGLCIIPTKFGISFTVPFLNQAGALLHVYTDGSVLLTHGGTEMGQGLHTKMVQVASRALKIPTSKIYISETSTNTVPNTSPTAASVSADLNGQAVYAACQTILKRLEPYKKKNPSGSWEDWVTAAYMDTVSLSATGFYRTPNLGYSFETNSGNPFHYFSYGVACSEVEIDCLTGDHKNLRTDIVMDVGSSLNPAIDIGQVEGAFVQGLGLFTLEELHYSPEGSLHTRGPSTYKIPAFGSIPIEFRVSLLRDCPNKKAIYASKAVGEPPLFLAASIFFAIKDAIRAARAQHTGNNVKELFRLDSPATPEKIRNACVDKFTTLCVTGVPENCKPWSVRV
T1 sequence (P22985 whole entry): as the sequence (P22985 whole entry) above
T3 sequence (P22985 whole entry): as above

Molecule: O[C@H](CS)[C@H](O)CS (racemic) [DTT, dithiothreitol]
O-form XOR after DTT reduction [1]: approximately 23 % of the total XOR

Molecule: Oc1ncnc2[nH]ncc12 [allopurinol]
leukocyte-chemokine expression and leukocyte accumulation [2]: blocked
activation of caspase-3 in cytokine insufflated rat lungs [3]: blocked
pulmonary sarcoidosis attributed to BCG vaccination ([4]; human): completely regressed
sarcoidosis outcome ([4]; patients with sarcoidosis): induce remission
accumulation of inflammatory cells (BALF cell numbers) [5]: reduced
evidence of pancreatitis and vascular injury [6]: blocked
development of alveolar apoptosis (TUNEL positive alveolar nuclei) [7]: attenuated
XOR and evidence of XOR derived oxidative stress [8]: reduced
evidence of vascular injury [9]: dramatically attenuated
scavenging of ROS generated from the NADPH oxidase [10]: fails to scavenge
histologic evidence of airway and perivascular inflammation [11]: attenuated
capacity to reduce PMN accumulation in the eye [12]: as effective as steroid treatment
recovery of neutrophils in the BALF after insufflation of treated BALF cells [13]: attenuated
superoxide generation [14]: normalized
pancreatic fibrosis [15]: blocked
endothelial injury in the lungs (and gut) [16]: reduce
effect in patients with chronic heart failure, cardiomyopathy, or undergoing heart surgery [17]: cardio-protective effect
markers of leukocyte infiltration in the gut [18]: decreased
progression of experimentally induced acute gastric mucosal lesions [18]: blocked
Id-2 from BALF cells (Western immunoblot) [19]: XOR dependent regulations of MNP Id-2 levels
vascular endothelial function [20]: protective
I/R induced colonic leukocyte-chemokine expression and leukocyte accumulation [21]: markedly reduced

Molecule: [W] [tungsten]
activation of caspase-3 in cytokine insufflated rat lungs [3]: blocked
XOR activity in the lungs ([22]; tungsten diet before IL-1 and IFN-γ insufflation, 24 hours later, vs control diet (FIG. 4a)): decreased
mononuclear cell infiltration and rejection signs ([23]; day 9 post-transplantation): significantly ameliorated
NADPH-oxidase activity ([23]; renal allografts): without any effect
XOR activity and ROS production ([23]; renal allografts): pronounced reduction
accumulation of inflammatory cells (BALF cell numbers) [5]: reduced
development of alveolar apoptosis (TUNEL positive alveolar nuclei) [7]: attenuated
histologic evidence of airway and perivascular inflammation [11]: attenuated
XOR activity in the BALF cells (MNP XOR activity) [24]: decreased

More lines, main results first:

induction of total lung XOR activity [22]: negligible response
lung O-form XOR content [22]: 52 % of the total XOR activity
B1: interferon-y (protein, UniProt P01581 23-156, looked up)
Interferon gamma: QGTLIESLESLKNYFNSSSMDAMEGKSLLLDIWRNWQKDGNTKILESQIISFYLRLFEVLKDNQAISNNISVIESHLITNFFSNSKAKKDAFMSIAKFEVNNPQIQHKAVNELIRVIHQLSPESSLRKRKRSRC
notes: recombinant rat cytokine insufflated intratracheally to induce lung inflammation
macrophages in BALF (differential analysis) [5]: ~20%
neutrophils in BALF (differential analysis) [5]: approximately 80%

induction of total lung XOR activity [22]: approximate doubling
lung O-form XOR content [22]: 57 % of the total XOR activity
B2: Recombinant rat interleukin-1-α (protein, UniProt P16598 115-270, looked up)
Interleukin-1 alpha: SAPHSFQNNLRYKLIRIVKQEFIMNDSLNQNIYVDMDRIHLKAASLNDLQLEVKFDMYAYSSGGDDSKYPVTLKVSNTQLFVSAQGEDKPVLLKEIPETPKLITGSETDLIFFWEKINSKNYFTSAAFPELLIATKEQSQVHLARGLPSMIDFQIS
notes: as for B1
macrophages in BALF (differential analysis) [5]: ~20%
neutrophils in BALF (differential analysis) [5]: approximately 80%
